Experimental data from article PMC9506420, “Biological Evaluation of 3-Azaspiro[Bicyclo[3.1.0]Hexane-2,5′-Pyrimidines] as Potential Antitumor Agents” (International Journal of Molecular Sciences, 2022).
Read-outs that look alike come from different tables or passages of the source.

Tests used:
Format in all cases: cell-based
[1] = system: human cervical carcinoma (HeLa) cell line; test: MTS antiproliferative (cytotoxicity) assay, HeLa; details: for SI (selectivity index), HeLa: Vero as reference cell line
Description: (§1) The cytotoxicity of synthesized 3-azaspiro[bicyclo[3.1.0]hexane-2,5′-pyrimidines] 4 against human erythroleukemia (K562), cervical carcinoma (HeLa), and T lymphocyte (Jurkat), as well as mouse colon carcinoma (CT26) and African green monkey kidney epithelial (Vero) cell lines as reference, was evaluated in vitro by the standard MTS assay for 24 and 72 h.
(§2) All the cell lines (human cervical carcinoma (HeLa), erythroleukemia (K-562), and T lymphocyte (Jurkat) as well as mouse colon carcinoma (CT26) and African green monkey kidney epithelial (Vero)) were obtained from the cell repository “Vertebrate cell culture collection” (supported by the Ministry of Science and Higher Education of the Russian Federation, agreement №075-15-2021-683, Institute of Cytology, Russian Academy of Sciences, Saint Petersburg, Russia). HeLa, Jurkat, and Vero cells were cultured in DMEM (HyClone, South Logan, UT, USA) supplemented with 10% (v/v) fetal bovine serum (Hyclone, GE Healthcare Life Sciences, Logan, UT, USA), and gentamicin (Sigma-Aldrich, St. Louis, MO, USA) at 37 °C in a humidified atmosphere with 5% CO2. K-562 and CT26 cells were grown at RPMI medium (Hyclone, GE Healthcare Life Sciences, Logan, UT, USA), with the same supplements and conditions.
(§3) To evaluate the in vitro toxicity of compounds synthesized, cells were seeded into 96-well plates at a density of 5 × 10^3 cells per well. On the next day, tested compounds were added to the wells at concentrations ranging from […], followed by incubation for 1 and 3 days. Cell proliferation was determined by adding 20 μL of MTS reagent (BioVision, Milpitas, CA, USA) stock solution per well. Each plate was incubated for 2 h at 37 °C in a humidified, 5% CO2 atmosphere. The plates were then read at 495 nm using plate spectrophotometer (Multiskan GO, Thermo Fisher Scientific, Waltham, MA, USA). All samples were measured in triplicates.

[2] = system: African green monkey kidney epithelial (Vero) cell line; test: MTS antiproliferative (cytotoxicity) assay, Vero (reference)
Description: as §1, §2, §3

[3] = system: mouse colon carcinoma (CT26) cell line; test: MTS antiproliferative (cytotoxicity) assay, CT26; details: for SI (selectivity index), CT26: Vero as reference cell line
Description: as §1, §2, §3

[4] = system: human erythroleukemia (K562) cell line; test: MTS antiproliferative (cytotoxicity) assay, K562; details: for SI (selectivity index), K562: Vero as reference cell line
Description: as §1, §2, §3

[5] = system: human T lymphocyte (Jurkat) cell line; test: MTS antiproliferative (cytotoxicity) assay, Jurkat; details: for IC50: Homo sapiens, MTS
Description: (§4) The cytotoxicity of synthesized 3-azaspiro[bicyclo[3.1.0]hexane-2,5′-pyrimidines] 4 against human erythroleukemia (K562), cervical carcinoma (HeLa), and T lymphocyte (Jurkat), as well as mouse colon carcinoma (CT26) and African green monkey kidney epithelial (Vero) cell lines as reference, was evaluated in vitro by the standard MTS assay for 24 and 72 h. The results are presented in Figure 1, Figure 2, Figure 3, Figure 4 and Figure 5 (data on all, tested on K562, HeLa, and CT26 cell lines’ compounds, are given at SI, Figures S1–S3). […] Replacement of the phenyl group by either the carboxymethyl or N-isopropylcarbamoyl group has led to a significant decrease in the activity of spiro-fused cycloadducts comprising azabicyclo[3.1.0]hexane and alloxane moieties.
as §2, §3

[6] = system: K562, Jurkat, HeLa, CT26 and Vero cell lines; test: MTS antiproliferative screening, all tested cell lines; details: compared with phenyl substituted adducts
Description: as §4, with “moieties. […]” for “moieties.”
To evaluate the in vitro toxicity of compounds synthesized, cells were seeded into 96-well plates at a density of 5 × 10^3 cells per well. […] Cell proliferation was determined by adding 20 μL of MTS reagent (BioVision, Milpitas, CA, USA) stock solution per well. […] The plates were then read at 495 nm using plate spectrophotometer (Multiskan GO, Thermo Fisher Scientific, Waltham, MA, USA). All samples were measured in triplicates.

[7] = Homo sapiens, HeLa, 24 h, read-out: IC50, HeLa, 24 h
[8] = Homo sapiens, HeLa, 72 h, read-out: IC50, HeLa, 72 h
[9] = Chlorocebus sabaeus, Vero, 24 h, read-out: IC50, Vero, 24 h
[10] = Chlorocebus sabaeus, Vero, 72 h, read-out: IC50, Vero, 72 h
[11] = Mus musculus, CT26, 24 h, read-out: IC50, CT26, 24 h
[12] = Mus musculus, CT26, 72 h, read-out: IC50, CT26, 72 h
[13] = Homo sapiens, K562, 24 h, read-out: IC50, K562, 24 h
[14] = Homo sapiens, K562, 72 h, read-out: IC50, K562, 72 h

N.N.[Cl][Pt][Cl] [Cisplatin, reference compound]
SI (selectivity index), HeLa ([1]; HeLa): 0.7 | IC50 ([1]; MTS, 24 h, read-out: IC50, HeLa, 24 h): 16 ± 4 µM | IC50 ([1]; MTS, 72 h, read-out: IC50, HeLa, 72 h): 6 ± 1 µM | IC50 ([2]; MTS, 24 h, read-out: IC50, Vero, 24 h): 14 ± 1 µM | IC50 ([2]; MTS, 72 h, read-out: IC50, Vero, 72 h): 4 ± 1 µM | SI (selectivity index), CT26 ([3]; CT26): 0.8 | IC50 ([3]; MTS, 24 h, read-out: IC50, CT26, 24 h): 24 ± 4 µM | IC50 ([3]; MTS, 72 h, read-out: IC50, CT26, 72 h): 5 ± 1 µM | SI (selectivity index), K562 ([4]; K562): 0.3 | IC50 ([4]; MTS, 24 h, read-out: IC50, K562, 24 h): 46 ± 8 µM | IC50 ([4]; MTS, 72 h, read-out: IC50, K562, 72 h): 14 ± 2 µM

O=C1NC(=O)C2(NC[C@@]3(c4ccccc4)[C@H](c4ccccc4)[C@@]23c2ccccc2)C(=O)N1 [Compound 4a]
SI (selectivity index), HeLa ([1]; HeLa): 0.2 | IC50 [1, 7]: 125 ± 18 µM | IC50 [1, 8]: 70 ± 4 µM | IC50 [2, 9]: 50 ± 14 µM | IC50 [2, 10]: 14 ± 2 µM | SI (selectivity index), CT26 ([3]; CT26): 0.3 | IC50 [3, 11]: 64 ± 7 µM | IC50 [3, 12]: 50 ± 7 µM | IC50 ([5]; 24 h, read-out: IC50, Jurkat, 24 h): 24 ± 2 µM | IC50 ([5]; 72 h, read-out: IC50, Jurkat, 72 h): 19 ± 5 µM | SI (selectivity index), Jurkat ([5]; Vero as reference cell line): 0.8 | IC50 [4, 13]: 47 ± 8 µM | IC50 [4, 14]: 14 ± 1 µM | SI (selectivity index), K562 ([4]; K562): 1.0 | relative antiproliferative activity (structure-activity comparison) [6]: less active

C[C@@H]1NC2(C(=O)NC(=O)NC2=O)[C@]2(c3ccccc3)[C@@H](c3ccccc3)[C@]12c1ccccc1 [Compound 4b]
SI (selectivity index), HeLa ([1]; HeLa): 1.2 | IC50 [1, 7]: 34 ± 2 µM | IC50 [1, 8]: 18 ± 2 µM | IC50 [2, 9]: 55 ± 7 µM | IC50 [2, 10]: 21 ± 2 µM | SI (selectivity index), CT26 ([3]; CT26): 1.0 | IC50 [3, 11]: 30 ± 2 µM | IC50 [3, 12]: 21 ± 2 µM | IC50 [4, 13]: 25 ± 5 µM | IC50 [4, 14]: 9 ± 2 µM | SI (selectivity index), K562 ([4]; K562): 2.4

COc1cccc2c1C(=O)c1c(O)c3c(c(O)c1C2=O)C[C@@](O)(C(=O)CO)C[C@@H]3O[C@H]1C[C@H](N)[C@H](O)[C@H](C)O1 [Doxorubicin, reference compound]
SI (selectivity index), HeLa ([1]; HeLa): 4.8 | IC50 ([1]; Homo sapiens, HeLa, MTS, 24 h, read-out: IC50, HeLa, 24 h): 4 ± 1 µM | IC50 ([1]; Homo sapiens, HeLa, MTS, 72 h, read-out: IC50, HeLa, 72 h): 0.5 ± 0.1 µM | IC50 ([2]; Chlorocebus sabaeus, Vero, MTS, 24 h, read-out: IC50, Vero, 24 h): 13 ± 2 µM | IC50 ([2]; Chlorocebus sabaeus, Vero, MTS, 72 h, read-out: IC50, Vero, 72 h): 2.4 ± 0.4 µM | SI (selectivity index), CT26 ([3]; CT26): 0.5 | IC50 ([3]; Mus musculus, CT26, MTS, 24 h, read-out: IC50, CT26, 24 h): 19 ± 3 µM | IC50 ([3]; Mus musculus, CT26, MTS, 72 h, read-out: IC50, CT26, 72 h): 5.5 ± 0.3 µM | IC50 ([4]; Homo sapiens, K562, MTS, 24 h, read-out: IC50, K562, 24 h): 16 ± 3 µM | IC50 ([4]; Homo sapiens, K562, MTS, 72 h, read-out: IC50, K562, 72 h): 1.2 ± 0.3 µM | SI (selectivity index), K562 ([4]; K562): 2.0
